# Molecular target: T1, transglutaminase 2 (TG2, tissue transglutaminase) (Homo sapiens, UniProt P21980)
# T1 construct: gene TGM2
# T1 sequence (P21980 2-687): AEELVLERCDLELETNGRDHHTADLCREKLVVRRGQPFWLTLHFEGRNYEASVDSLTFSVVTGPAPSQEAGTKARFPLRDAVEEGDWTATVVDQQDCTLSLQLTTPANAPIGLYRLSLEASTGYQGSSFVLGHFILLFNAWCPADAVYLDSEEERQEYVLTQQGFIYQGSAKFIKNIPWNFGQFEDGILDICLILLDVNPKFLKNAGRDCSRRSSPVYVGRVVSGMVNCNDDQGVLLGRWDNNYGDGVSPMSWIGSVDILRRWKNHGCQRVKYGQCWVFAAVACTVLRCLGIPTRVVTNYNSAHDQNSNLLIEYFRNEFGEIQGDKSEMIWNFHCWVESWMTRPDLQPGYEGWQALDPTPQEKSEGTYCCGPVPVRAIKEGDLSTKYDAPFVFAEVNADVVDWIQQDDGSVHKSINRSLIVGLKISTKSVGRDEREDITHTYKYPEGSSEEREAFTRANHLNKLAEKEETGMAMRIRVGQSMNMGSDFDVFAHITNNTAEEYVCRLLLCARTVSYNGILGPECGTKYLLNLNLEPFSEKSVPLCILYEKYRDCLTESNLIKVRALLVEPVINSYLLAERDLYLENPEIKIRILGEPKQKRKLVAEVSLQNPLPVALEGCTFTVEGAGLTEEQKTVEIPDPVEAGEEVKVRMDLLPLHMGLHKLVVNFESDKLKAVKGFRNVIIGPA
# Assay: in vitro 5BP transamidation assay with immobilized TG2 ([…]), photometric
# Assay type: biochemical
row,IC50 [µM],Compound
1,0.7,"CCC(C)SSc1ncc[nH]1 (centres unmarked) [PX12, 1-methylpropyl 2-imidazolyl disulfide]"
2,140,N[C@@H](CSSC[C@H](N)C(=O)O)C(=O)O [L-cystine]
